The subject of experiment [1] is α5β1 integrin. As to the kind of experiment: Inhibition of α5β1-mediated cell attachment to fibronectin. The experiment is classed as cell-based, human. The text has this:
Cell lines expressing different integrins were used to examine peptide inhibition of integrin function. A human melanoma cell line, C8161, a fibroblast cell line, WI-38, and an osteosarcoma cell line, MG-63 (described by Seftor et al., Canc. Res., 53:3411–3415 (1993); Vogel et al., J. Biol. Chem., 265:5934–5937 (1990); and Pytela et al. (1985), supra, respectively, each of which is incorporated herein by reference) attach to fibronectin through α5β1 integrin, as does B2/α27, a CHO cell line transfected with human α5. B2/C1, the control parental CHO line (Bauer et al., J. Cell. Biol. 116:477–487 (1992), which is incorporated herein by reference), attaches via […]. CHO cells C11 and NIH 3T3 cells express the endogenous Chinese hamster and mouse α5β1 integrins, respectively. The human melanoma cells, A375-M, attach to fibronectin through both α5β1 and α4β1 integrins (Mould et al., J. Biol. Chem. 265:4020–4024 (1990), which is incorporated herein by reference). CHO cell line B2/v7 express the αvβ1 integrin (Zhang et al., J. Cell. Biol. 122:235–242 (1993), which is incorporated herein by reference). The vitronectin-binding integrins […] and αvβ3 were assayed using the cell line HT-29 and IMR-90, respectively (Koivunen et al., J. Biol. Chem. 268: 20205–20210 (1993)).
(§1) Cell lines expressing fibronectin-binding integrins were used to determine peptide activities against these integrins in the cell attachment assay described by Ruoslahti et al., Meth. Enzymol., 144:803–831 (1982), which is incorporated herein by reference. Human plasma fibronectin was iodinated as described by Morla and Ruoslahti, J. Cell Biol., 118:421–429 (1992), which is incorporated herein by reference. Vitronectin was obtained from Telios Pharmaceuticals (San Diego, Calif.). […] Peptide was coated on plastic by incubating at 37° C. for 2 hours in phosphate buffered saline containing 0.25% glutaraldehyde to crosslink the peptide. Free binding sites on the plastic were blocked using BSA. Approximately 1×10^5 cells per well were allowed to attach for 1 hour in the presence or absence of competing peptides. Bound cells were quantitated by staining with 0.1% amido black.
Inhibition of cell attachment mediated by either fibronectin- or vitronectin-binding integrins was performed to determine peptide specificity in a biologically relevant system. The assays and cell lines were performed as described above. FIGS. 5 and 6 show the results of cell attachment mediated by the fibronectin binding integrins α5β1 and αvβ1.

Experiment [2] addresses T1, α5β1 integrin (Homo sapiens, UniProt P05556+P08648).
T1 construct: The αvβ3, αvβ5 and α5β1 integrins were isolated from human placental extracts; from tissue; host or cells: human placenta
As to the kind of experiment: Inhibition of peptide-displaying phage binding to α5β1 integrin by synthetic peptides. The method, then: Phage clone containing the RGDGW [SEQ ID NO:9] sequence was incubated for 1 hour in integrin-coated microliter wells in the presence of the competing peptides. After extensive washing, the phage remained bound were determined as described in Example XII.
(§2) In addition, most of the phage-binding activity in the αvβ3 preparation was captured into microliter wells coated with antibodies against the αv or β3 subunits as described previously (Koivunen et al., J. Biol. Chem., 268:20205–10 (1993). The αIIbβ3 integrin was isolated from outdated platelets (Pytela et al., Science, 231:1559–1562 (1986)).
(§3) Binding of individual cloned phage to integrins was studied in microliter wells as described in Koivunen et al., J. Cell. Biol., 124:373–380 (1994). Phage binding to α5β1 and αvβ3 were assayed in TBS buffer containing 1% BSA and 1 mM MnCl2 and binding to αvβ5 in the presence of 1 mM CaCl2. Phage that were bound were determined by their ability to infect F-pilus positive K91kan bacteria. Bacteria were grown overnight in microliter wells in the presence of tetracycline and the absorbance indicative of bacterial growth was read at 600 nm with an ELISA plate reader.
Relative affinities of the […] [SEQ ID NO:12] and CRGDC [SEQ ID NO:37] peptides were determined by inhibition of binding of peptide-displaying phage to α5β1 integrin. Peptide-displaying phage were constructed as described by Scott and Smith, Science 249:386–390 (1990) and Example IV. Microwell plates were coated with various integrins as described by Koivunen et al., J. Biol. Chem., 268:20205–10 (1993) and Example II.
The binding of […] [SEQ ID NO:12]-containing peptide ligands to α5β1 integrin was performed as follows. RRETAWA [SEQ ID NO:8]-displaying phage were incubated for 1 hour in the presence of various concentrations of the cyclic peptides containing […] [SEQ ID NO:12] and containing CRGDC [SEQ ID NO:37] in microliter wells coated with the α5β1 integrin. Binding was quantitated by adding K91kan bacteria directly to the wells and growing the bacteria overnight at room temperature (Smith and Scott, Meth. Enzymol., 217:228–257 (1993), which is incorporated herein by reference).
Additional peptide motifs were tested as follows. ELRGDGW-displaying [SEQ ID NO:4] phage were added together with various concentrations of the cyclic peptides containing […] [SEQ ID NO:12] and containing CRGDC [SEQ ID NO:37] into microliter wells coated with the α5β1 integrin, incubated for 1 hour at room temperature and binding to wells was quantitated.

Experiment [3] has as its target T1, α5β1 integrin. In words: Panning and binding of peptide-displaying phage on α5β1 integrin. The settings on record: phage-displayed sequence.
From the text: as §2
Peptide libraries were constructed in fuse 5 vector (Scott and Smith, Science 249:386–390 (1990)) as described previously (Koivunen et al., J. Cell Biol., 124:373–380 (1994). The CX5C, CX6C, CX7C and CX9 [SEQ ID NOs:39–42, respectively] libraries were prepared using synthetic oligonucleotides containing core sequences TGT(NNK)5TGT, TGT(NNK)6TGT, TGT(NNK)7TGT and TGT(NNK)9 [SEQ ID NOS:43–46, respectively] (N=equal molar mixture of A, C, G, T; K=G or T), respectively. The oligonucleotides were made double-stranded by PCR amplification with 5 cycles, purified and ligated to the N-terminus of pIII gene of fuse 5 vector. The CX5C, CX6C, CX7C and CX9 [SEQ ID NOS:39–42, respectively] vectors were transfected into MC1061 cells using 16, 60, 263 and 250 electroporations, respectively. Bacteria were cultured for 24 hours in the presence of 20 μg/ml of tetracycline, and phage were collected from the supernatant by precipitation twice with polyethylene glycol. The phage pellets were dissolved at approximately 10^13 transducing units (TU)/ml in TBS buffer containing 0.02% NaN3 and stored at 4° C. The yields of the CX5C, CX6C, CX7C and CX9 [SEQ ID NOS:39–42, respectively] primary libraries were 3.5×10^8, 1.1×10^9, 4.5×10^5 and 3.5×10^8 clones, respectively. […]
Binding of individual cloned phage to integrins was studied in microliter wells as described in Koivunen et al., J. Cell. […] Phage that were bound were determined by their ability to infect F-pilus positive K91kan bacteria. Bacteria were grown overnight in microliter wells in the presence of tetracycline and the absorbance indicative of bacterial growth was read at 600 nm with an ELISA plate reader.

The test system of experiment [4] is α5β1 integrin. As to the kind of experiment: Cell attachment to immobilized […] peptide (B2/α27 vs B2/Cl cells). The experiment is classed as cell-based, human. The settings on record: FIG. 8.
From the text: as §1
In addition to the inhibition of cell attachment to natural ligands, attachment and inhibition assays were performed using the […] [SEQ ID NO:6] peptide as substrate. The microliter well were coated with […] [SEQ ID NO:6] using glutaraldehyde as described above. Briefly, peptide was coated on plastic by incubating at 37° C. for 2 hours in phosphate buffered saline containing 0.25% glutaraldehyde to crosslink the peptide and free binding sites on the plastic were blocked using BSA. The wells were then saturated with BSA followed by the addition of 50,000 B2/α27 or B2/Cl cells in the presence or absence of the indicated inhibitor. […] Bound cells were quantitated by staining with 0.1% amido black.

The next experiment deals with α4β1 (Homo sapiens, UniProt P05556+P13612). The settings on record: Nowlin et al., J. Biol. Chem. 268:20352–59 (1993); cited from earlier work.
In the next experiment the target is α5β1 (Homo sapiens, UniProt P05556+P08648). Conditions: Nowlin et al., J. Biol. Chem. 268:20352–59 (1993); cited from earlier work.
For another experiment, the target named is αvβ3 integrin (Homo sapiens, UniProt P05106+P06756). In words: Inhibition of peptide-displaying phage binding to αvβ3 integrin by synthetic peptides. More on the design: The αvβ3, αvβ5 and α5β1 integrins were isolated from human placental extracts; from tissue; host or cells: human placenta. Conditions: CRGDCL-displaying phage, αvβ3-coated wells; FIG. 3 (result sentence prints α5β1).
From the text: as §2, §3
The ability of […] [SEQ ID NO:12] and CRGDC [SEQ ID NO:37] containing peptides to inhibit binding of CRGDCL-displaying [SEQ ID NO:7] phage to the microwells coated with αvβ3 integrin also was examined. CRGDCL-displaying [SEQ ID NO:7] phage were added to a well and either cyclic […] [SEQ ID NO:6] or cyclic […] [SEQ ID NO:5] was added to compete for binding. Binding was quantitated as described above.

Where two headings read alike, the source gives them in different places. Bridge positions count the residues as written; N and C are the ends. Ends that are not written are not given here.

T1 sequence (P08648 42-894 limits assumed): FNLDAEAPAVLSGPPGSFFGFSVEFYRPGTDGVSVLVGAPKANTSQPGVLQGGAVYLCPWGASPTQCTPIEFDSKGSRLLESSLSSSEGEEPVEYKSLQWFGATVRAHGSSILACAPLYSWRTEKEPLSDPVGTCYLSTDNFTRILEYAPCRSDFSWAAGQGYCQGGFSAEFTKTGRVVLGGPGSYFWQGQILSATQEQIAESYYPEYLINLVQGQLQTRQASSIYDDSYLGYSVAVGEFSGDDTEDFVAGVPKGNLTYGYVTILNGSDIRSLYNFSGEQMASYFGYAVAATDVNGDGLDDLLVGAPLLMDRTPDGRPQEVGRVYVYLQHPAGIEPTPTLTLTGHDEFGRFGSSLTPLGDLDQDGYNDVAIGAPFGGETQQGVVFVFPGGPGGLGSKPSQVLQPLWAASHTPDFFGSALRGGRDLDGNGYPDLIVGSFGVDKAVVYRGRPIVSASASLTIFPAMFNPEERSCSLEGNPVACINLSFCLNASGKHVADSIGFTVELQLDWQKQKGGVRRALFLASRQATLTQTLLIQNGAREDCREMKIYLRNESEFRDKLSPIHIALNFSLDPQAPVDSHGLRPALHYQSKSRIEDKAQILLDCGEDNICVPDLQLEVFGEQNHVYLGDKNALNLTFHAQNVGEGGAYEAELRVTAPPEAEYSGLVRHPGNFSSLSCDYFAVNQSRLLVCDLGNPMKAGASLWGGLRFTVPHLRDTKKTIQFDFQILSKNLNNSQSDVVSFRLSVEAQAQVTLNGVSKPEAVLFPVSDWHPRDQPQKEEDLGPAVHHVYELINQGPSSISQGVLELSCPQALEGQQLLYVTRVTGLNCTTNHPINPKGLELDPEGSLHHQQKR
T1 sequence (P08648 895-1049 partner limits assumed): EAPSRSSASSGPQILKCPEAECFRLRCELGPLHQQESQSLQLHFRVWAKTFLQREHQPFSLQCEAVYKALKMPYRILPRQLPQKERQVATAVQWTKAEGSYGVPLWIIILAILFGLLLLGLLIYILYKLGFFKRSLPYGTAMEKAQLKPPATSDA
T1 sequence (P05556 21-798): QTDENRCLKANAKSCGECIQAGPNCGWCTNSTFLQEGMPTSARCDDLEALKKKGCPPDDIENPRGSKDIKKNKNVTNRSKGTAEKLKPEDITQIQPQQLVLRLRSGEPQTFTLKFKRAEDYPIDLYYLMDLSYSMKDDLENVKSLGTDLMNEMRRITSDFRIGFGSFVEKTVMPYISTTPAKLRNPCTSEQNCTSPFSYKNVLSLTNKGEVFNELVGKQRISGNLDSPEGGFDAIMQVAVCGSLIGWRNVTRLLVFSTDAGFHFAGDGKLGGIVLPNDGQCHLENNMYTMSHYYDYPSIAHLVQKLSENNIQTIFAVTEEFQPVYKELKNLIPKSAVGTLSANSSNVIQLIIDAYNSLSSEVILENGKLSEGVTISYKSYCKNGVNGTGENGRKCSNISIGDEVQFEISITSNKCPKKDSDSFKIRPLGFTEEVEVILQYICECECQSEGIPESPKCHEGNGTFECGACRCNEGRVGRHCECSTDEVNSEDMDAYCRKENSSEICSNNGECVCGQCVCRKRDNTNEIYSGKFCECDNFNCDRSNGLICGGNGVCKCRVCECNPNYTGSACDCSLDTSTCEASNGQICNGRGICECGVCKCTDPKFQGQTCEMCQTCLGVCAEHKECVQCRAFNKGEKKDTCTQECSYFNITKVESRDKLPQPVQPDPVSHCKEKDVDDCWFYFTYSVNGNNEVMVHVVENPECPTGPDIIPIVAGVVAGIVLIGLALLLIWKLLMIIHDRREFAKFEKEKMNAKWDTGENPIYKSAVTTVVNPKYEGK
Chain of αvβ3 integrin (P06756 31-889 limits assumed): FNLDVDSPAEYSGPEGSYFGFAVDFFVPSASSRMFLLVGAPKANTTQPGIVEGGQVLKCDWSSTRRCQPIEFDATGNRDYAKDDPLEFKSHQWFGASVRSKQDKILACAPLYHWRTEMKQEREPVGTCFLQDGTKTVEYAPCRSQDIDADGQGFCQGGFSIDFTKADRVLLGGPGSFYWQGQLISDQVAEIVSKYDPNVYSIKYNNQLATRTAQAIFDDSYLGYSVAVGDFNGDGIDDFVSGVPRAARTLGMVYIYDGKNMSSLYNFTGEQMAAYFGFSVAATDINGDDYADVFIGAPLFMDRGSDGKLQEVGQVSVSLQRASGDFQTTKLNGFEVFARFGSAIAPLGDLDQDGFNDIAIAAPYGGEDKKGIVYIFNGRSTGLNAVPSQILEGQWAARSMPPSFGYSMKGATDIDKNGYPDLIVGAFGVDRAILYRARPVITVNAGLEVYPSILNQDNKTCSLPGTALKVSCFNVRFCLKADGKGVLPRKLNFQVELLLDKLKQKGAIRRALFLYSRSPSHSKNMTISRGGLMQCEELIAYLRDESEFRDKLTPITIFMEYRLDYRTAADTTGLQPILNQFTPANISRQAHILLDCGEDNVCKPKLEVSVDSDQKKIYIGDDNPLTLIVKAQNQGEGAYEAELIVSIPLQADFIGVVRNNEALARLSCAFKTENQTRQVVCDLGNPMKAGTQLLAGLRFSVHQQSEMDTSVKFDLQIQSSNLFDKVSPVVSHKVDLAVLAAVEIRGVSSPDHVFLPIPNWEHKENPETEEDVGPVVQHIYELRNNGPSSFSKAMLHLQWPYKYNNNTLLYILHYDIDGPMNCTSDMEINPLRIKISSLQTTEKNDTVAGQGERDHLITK
Chain of αvβ3 integrin (P06756 891-1048 partner limits assumed): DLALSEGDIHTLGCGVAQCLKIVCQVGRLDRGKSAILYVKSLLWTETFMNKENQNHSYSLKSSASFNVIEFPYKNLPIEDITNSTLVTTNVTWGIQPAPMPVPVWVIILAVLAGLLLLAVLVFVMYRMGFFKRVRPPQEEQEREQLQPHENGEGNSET
Chain of αvβ3 integrin (P05106 27-788): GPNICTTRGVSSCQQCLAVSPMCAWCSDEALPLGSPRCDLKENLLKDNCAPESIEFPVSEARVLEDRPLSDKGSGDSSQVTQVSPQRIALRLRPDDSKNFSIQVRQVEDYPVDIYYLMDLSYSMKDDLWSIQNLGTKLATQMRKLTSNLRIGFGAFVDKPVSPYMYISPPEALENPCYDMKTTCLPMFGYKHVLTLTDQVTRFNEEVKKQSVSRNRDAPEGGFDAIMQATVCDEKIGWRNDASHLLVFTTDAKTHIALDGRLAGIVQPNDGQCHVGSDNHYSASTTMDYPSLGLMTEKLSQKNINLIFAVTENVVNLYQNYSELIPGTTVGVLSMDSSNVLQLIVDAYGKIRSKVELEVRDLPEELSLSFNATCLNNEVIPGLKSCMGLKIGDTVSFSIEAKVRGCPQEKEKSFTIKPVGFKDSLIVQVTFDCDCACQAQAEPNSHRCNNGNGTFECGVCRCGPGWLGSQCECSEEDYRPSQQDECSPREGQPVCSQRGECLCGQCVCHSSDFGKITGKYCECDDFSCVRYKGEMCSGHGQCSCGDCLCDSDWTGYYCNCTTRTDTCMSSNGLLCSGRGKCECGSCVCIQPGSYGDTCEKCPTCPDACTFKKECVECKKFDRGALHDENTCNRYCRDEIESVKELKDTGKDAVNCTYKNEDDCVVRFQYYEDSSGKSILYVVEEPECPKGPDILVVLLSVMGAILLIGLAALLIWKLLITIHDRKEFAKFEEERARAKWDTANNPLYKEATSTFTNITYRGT
Chain of α4β1 (P13612 34-1032): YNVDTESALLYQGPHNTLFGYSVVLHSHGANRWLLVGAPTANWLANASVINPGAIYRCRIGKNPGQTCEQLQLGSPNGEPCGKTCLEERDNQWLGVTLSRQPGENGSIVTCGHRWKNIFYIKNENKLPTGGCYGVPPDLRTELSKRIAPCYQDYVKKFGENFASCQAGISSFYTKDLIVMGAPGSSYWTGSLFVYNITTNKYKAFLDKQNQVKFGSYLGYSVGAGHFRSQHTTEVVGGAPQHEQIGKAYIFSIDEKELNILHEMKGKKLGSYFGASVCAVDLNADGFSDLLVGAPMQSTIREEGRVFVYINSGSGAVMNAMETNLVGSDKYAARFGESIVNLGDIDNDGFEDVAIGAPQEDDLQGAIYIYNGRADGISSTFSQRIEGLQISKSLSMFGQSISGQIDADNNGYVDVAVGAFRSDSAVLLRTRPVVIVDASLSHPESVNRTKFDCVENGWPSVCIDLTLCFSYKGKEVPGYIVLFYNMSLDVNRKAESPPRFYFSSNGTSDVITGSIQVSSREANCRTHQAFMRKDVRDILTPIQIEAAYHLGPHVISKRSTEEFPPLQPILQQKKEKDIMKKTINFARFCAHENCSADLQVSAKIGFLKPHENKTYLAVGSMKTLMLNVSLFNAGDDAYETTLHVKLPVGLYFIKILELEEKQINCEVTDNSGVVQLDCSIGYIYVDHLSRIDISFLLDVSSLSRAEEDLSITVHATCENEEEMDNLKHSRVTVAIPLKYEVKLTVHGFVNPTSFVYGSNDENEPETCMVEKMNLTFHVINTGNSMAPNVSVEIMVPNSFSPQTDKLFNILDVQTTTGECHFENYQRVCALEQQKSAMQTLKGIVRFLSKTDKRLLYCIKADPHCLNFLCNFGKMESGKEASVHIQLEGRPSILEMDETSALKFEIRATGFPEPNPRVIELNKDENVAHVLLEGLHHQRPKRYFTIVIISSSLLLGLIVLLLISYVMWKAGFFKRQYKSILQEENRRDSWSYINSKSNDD
Chain of α4β1 (P05556 21-798): as the sequence (P05556 21-798) above
Chain of α5β1 (P08648 42-894 limits assumed): as the sequence (P08648 42-894 limits assumed) above
Chain of α5β1 (P08648 895-1049 partner limits assumed): as the sequence (P08648 895-1049 partner limits assumed) above
Chain of α5β1 (P05556 21-798): as the sequence (P05556 21-798) above

Regarding CRGDGWC [A*CRGDGWC*G], the IC50 came to 6 µM in the experiment on α5β1 integrin [1] (B2/a27 cells (human α5, CHO β1), FIG. 11, read-out: IC50 of inhibition of attachment of B2/a27 cells to fibronectin) and 10 µM with α5β1 integrin [1] (MG 63 cells, read-out: IC50 of inhibition of attachment of MG 63 cells to fibronectin). Further, the “potency relative to *CRGDC* in B2/a27 attachment to fibronectin” value with α5β1 integrin [1] (B2/a27 cells, more potent than *CRGDC*) was 7 fold. For the same molecule, the “potency relative to *CRRETAWAC* in B2/a27 attachment to fibronectin” value in the experiment with α5β1 integrin [1] (B2/a27 cells, more potent than *CRRETAWAC*) is listed as 7 fold. Further, in the experiment on α5β1 integrin [1] (MG 63 cells, more potent than *CRRETAWAC*), the “potency relative to *CRRETAWAC* in MG 63 cells” value is 4 fold. In addition, the “improvement in activity compared to linear GRGDSP” value in the experiment on α5β1 integrin [1] (α5β1-mediated attachment to fibronectin) is “about 50 fold”. For the same molecule, the “activity in inhibiting binding of RGD-displaying phage to α5β1 relative to *CRGDC*” value at α5β1 integrin [2] (RGDGW phage, more active than *CRGDC*, FIG. 9) is on record as 5 fold. Moreover, at α5β1 integrin [3], the “binding of peptide-displaying phage to the α5β1 integrin” value is given as “among the best binders”.
As for GRGESP [reference compound], the “effect on α5β1-mediated cell attachment to fibronectin” value in the experiment on α5β1 integrin [1] (B2/α27 cells, FIG. 5) was “no effect”. The “effect on RRETAWA-displaying phage binding to α5β1” value with α5β1 integrin [2] (RRETAWA-displaying phage, FIG. 4) is on record as “no effect”.
As for CRSETYWKC, the “binding of peptide-displaying phage to the α5β1 integrin” value with α5β1 integrin [3] is listed as “selectively bind”.
As to `O=C(O)CN(CCN(CC(=O)O)CC(=O)O)CC(=O)O` [EDTA, reference compound], in the experiment on α5β1 integrin [4] (inhibitor at 10 mM), the “inhibition of B2/α27 attachment to immobilized RRETAWA-containing peptide” value is “inhibited”.
For the molecule RCD(ThioP)C, the “binding to α4β1” value on α4β1 is on record as “high affinity”. Further, the “binding to α5β1” value at α5β1 was “high affinity”.
Consider “GACRGDCLGA (disulfide 3-7 (inferred)) [reference compound]”, for which the “inhibition of binding of CRGDCL-displaying phage to integrin-coated wells” value in the experiment with αvβ3 integrin was “completely inhibited”. In the experiment with α5β1 integrin [4] (inhibitor at 1 mM), the “inhibition of B2/α27 attachment to immobilized RRETAWA-containing peptide” value is reported as “inhibited”. Besides, the “inhibition of binding of ELRGDGW-displaying phage to α5β1 integrin” value with α5β1 integrin [2] (ELRGDGW-displaying phage, CRRETAWAC compared with CRGDC, FIG. 2) is on record as “approximately the same degree”.

(Values after US7067619B2, “Integrin-binding peptides” (La Jolla Cancer Research Foundation, priority 1993, dated 2006).)
